“Also recorded” adds a separate entry of the source. Where a SMILES comes first, the peptide text is derived from it. The star is where a group is joined. Cbz = O=C(OCc1ccccc1)*
Columns and labels:
[1] = test system: BAF complexes; assay: BAF subunit protein levels by immunoblotting in Ewing sarcoma cells; type: cell-based, human
Description: Immunoblotting. […] The following antibodies were used: rabbit polyclonal anti-FLI1 (ab15289, Abcam); mouse monoclonal anti-FLAG M2 (F1804, MilliporeSigma): rabbit monoclonal anti-NELL2 (ab181376, Abcam); goat polyclonal anti-PGK1 (sc-17943, Santa Cruz Biotechnology); rabbit polyclonal anti-Robo3 (LS-C345713, LSBio); goat polyclonal anti-Robo3 (PA5-18714, Thermo Fisher Scientific); mouse monoclonal anti-cdc42 (ACD03, Cytoskeleton); rabbit polyclonal anti-Rac1/2/3 (2465, Cell Signaling Technologies); rabbit polyclonal anti-Rho A (2117, Cell Signaling Technologies); goat polyclonal anti-BRG1 (A303-877A, Bethyl Laboratories); rabbit monoclonal anti-BRG1 (49360, Cell Signaling Technologies); rabbit polyclonal anti-BRM (A301-014A-T, Bethyl Laboratories); mouse monoclonal anti-ARID1A/BAF250) (sc-32761, Santa Cruz Biotechnology); rabbit polyclonal anti-BAF170 (A301-039A-T, Bethyl Laboratories); rabbit monoclonal anti-BAF155 (11956, Cell Signaling Technologies); rabbit polyclonal anti-BAF60B (A301-596A-T, Bethyl Laboratories); rabbit polyclonal anti-BAF57 (A300-810A-T, Bethyl Laboratories); rabbit polyclonal anti-BAF53A (A301-391A-T, Bethyl Laboratories); rabbit monoclonal anti-BAF47 (8745, Cell Signaling Technologies); rabbit polyclonal anti-BRD9 (A303-781A-T, Bethyl Laboratories); rabbit monoclonal anti-SS18 (21792, Cell Signaling Technologies); rabbit monoclonal anti-CD133 (64326, Cell Signaling Technologies); rabbit polyclonal anti-srGAP1 (A301-286A-T, Bethyl Laboratories); rabbit polyclonal anti-srGAP2 (GTX130797, GeneTex); mouse monoclonal anti-tubulin (DMIA, Thermo Fisher Scientific); rabbit polyclonal anti-β-actin (4967, Cell Signaling Technologies); mouse monoclonal anti-Rpb1 (2629, Cell Signaling Technologies); rabbit monoclonal anti-cdc6 (3387, Cell Signaling Technologies); rabbit monoclonal anti-caveolin-1 (3267, Cell Signaling Technologies); rabbit polyclonal anti-phospho-caveolin-1 (3251, Cell Signaling Technologies); rabbit monoclonal anti-Src (2123, Cell Signaling Technologies); rabbit monoclonal anti-phospho-Src Family (6943, Cell Signaling Technologies); and rabbit polyclonal anti-GDF6 (NBP1-91934, Novus Biologicals). The following HRP-conjugated secondary antibodies were used: goat anti-rabbit (7074) and goat anti-mouse (7076) (Cell Signaling Technologies); donkey anti-goat (A50)-201P, Bethyl Laboratories).

[2] = test system: CD133^low population; assay: Chemotherapeutic drug treatment of CD133high and CD133low populations; type: cell-based, human; settings: for CD133low population after prolonged treatment: FIG. 4M
Experimental: Flow cytometry. Cells were trypsinized, washed with FACS wash buffer (PBS, 0.5% BSA, 2 mM EDTA), and incubated with PE-conjugated human CD133/1 antibody (clone AC133, Miltenyi Biotec; 1:100 in FACS wash buffer) for 20 minutes at 4° C. Cells were washed three times with FACS wash buffer and the CD133^high and CD133^low cell populations were sorted by using BD FACSAria (Becton Dickinson). The FACSDiva 6.1.3 software (Becton Dickinson) was used for sample analysis.

[3] = test system: Rac. Ras, or Rab; settings: Surviladze et al. 2010; cited from earlier work
[4] = test system: A-673 and EW8 cells; assay: Proliferation of NELL2- or Robo3-silenced Ewing sarcoma cells (IncuCyte); type: cell-based, human; settings: 5 μM ML141; A-673 and EW8 cells; FIG. 3E
Experimental: Transfection and viral infection. Calcium phosphate co-precipitation was used for transfection of 293T cells. Lentiviruses were prepared by transfection in 293T cells following System Biosciences' protocol, and the cells infected with lentiviruses were selected with 2 μg/mL puromycin for 48 hours. The target sequences for shRNAs are as follows: FLI1 C-terminus shRNA, […] (SEQ ID NO: 20); luciferase shRNA, […] (SEQ ID NO: 21); NELL2 shRNA-1, […] (SEQ ID NO: 22); and NELL2 shRNA-2, […] (SEQ ID NO: 23). The following siRNAs were used: human NELL2 siRNA SMARTpool (M-012185-00); Dharmacon), human Robo3 siRNA SMARTpool (M-026504-00; Dharmacon), human Robo3 siRNAs NM_022370 (SASI_Hs01_00099511, SASI_Hs01_00099512, SASI_Hs01_00099513, SASI_Hs01_00099514, SASI_Hs01_00099515 and SASI_Hs01_00099516; MilliporeSigma), human cdc42 siRNA SMARTpool (M-005057-01; Dharmacon), human CD133 siRNA SMARTpool (M-010630-01; Dharmacon), human srGAP1 siRNA SMARTpool (M-026974-00; Dharmacon), srGAP2 siRNA SMARTpool (M-021531-03; Dharmacon), human caveolin-1 siRNA SMARTpool (M-003467-01; Dharmacon), human GDF6 siRNA SMARTpool (M-0330055-01; Dharmacon), and Non-Targeting siRNA Pool #2 (D-0012Jun. 14, 2005; Dharmacon), siRNA transfection of cell lines was performed using Lipofectamine™ RNAiMAX Transfection Reagent (Thermo Fisher).
Cell proliferation and xenograft tumorigenicity assays. Anchorage-dependent cell proliferation was assessed by IncuCyte live-cell imaging system (Essen BioScience). The IncuCyte system monitors cell proliferation by analyzing the occupied area (% confluence) of cell images over time. At least four fields from four wells were assayed for each experimental condition. The cell seeding density was 2000 cells per well in a 96-well plate. […] Anchorage-independent cell proliferation was evaluated by soft agar colony formation assays. […] Colonies were grown for three weeks and counted. Colonies (>50 cells) were scored by randomly counting 10 fields per dish. […] Tumor growth was monitored weekly using a caliper. […]

[5] = test system: CD133^low population; assay: Proliferation of sorted CD133low population (IncuCyte); type: cell-based, human; settings: CD133^low population treated with ML141
Experimental: (§1) Cell proliferation and xenograft tumorigenicity assays. Anchorage-dependent cell proliferation was assessed by IncuCyte live-cell imaging system (Essen BioScience). The IncuCyte system monitors cell proliferation by analyzing the occupied area (% confluence) of cell images over time. At least four fields from four wells were assayed for each experimental condition. The cell seeding density was 2000 cells per well in a 96-well plate. For each assay, biological replicates were performed to confirm the reproducibility of results. Anchorage-independent cell proliferation was evaluated by soft agar colony formation assays. A-673 cells were infected with lentiviruses expressing shRNAs against NELL2 or scrambled shRNA and were selected with 2 μg/ml puromycin. Four days after infection, 4×10^3 cells were plated in soft agar. The soft agar cultures were composed of two layers; a base layer [4 ml in a 60-mm dish; DMEM/10% fetal bovine serum/0.6% noble agar (A5431, MilliporeSigma)/penicillin/streptomycin] and a cell layer (2 ml in a 60-mm dish; DMEM/10% fetal bovine serum/0.3% noble agar/penicillin/streptomycin). Colonies were grown for three weeks and counted. Colonies (>50 cells) were scored by randomly counting 10 fields per dish. Sphere formation assays were done (Dasgupta, A., et al. (2017) Oncotarget 8, 77292-77308) using ultra-low attachment 6-well plates (Corning: seeding density 1×10^4 cells/well) and DMEM/F-12 medium supplemented with B27, human recombinant epidermal growth factor (20 ng/ml), and basic fibroblast growth factor (20 ng/ml). For xenograft tumorigenicity assays, cells were subcutaneously injected into the flanks of SCID mice (2×10^6 cells/injection, five mice/group). Tumor growth was monitored weekly using a caliper. While it is not possible to predict the effect size, the sample size of five mice per group was chosen based on experience with xenograft experiments. Mice were randomly allocated to treatment groups. Blinding of the researcher measuring tumor size was employed.
Flow cytometry. […]

[6] = target: T1, Robo3 (Homo sapiens, UniProt Q96MS0); assay: NELL2-FLAG ligand-binding assay in A-673 cells; settings: FIG. 2B
T1 construct: endogenous in cells; host or cells: A-673 Ewing sarcoma cells
T1 sequence (Q96MS0 21-1386): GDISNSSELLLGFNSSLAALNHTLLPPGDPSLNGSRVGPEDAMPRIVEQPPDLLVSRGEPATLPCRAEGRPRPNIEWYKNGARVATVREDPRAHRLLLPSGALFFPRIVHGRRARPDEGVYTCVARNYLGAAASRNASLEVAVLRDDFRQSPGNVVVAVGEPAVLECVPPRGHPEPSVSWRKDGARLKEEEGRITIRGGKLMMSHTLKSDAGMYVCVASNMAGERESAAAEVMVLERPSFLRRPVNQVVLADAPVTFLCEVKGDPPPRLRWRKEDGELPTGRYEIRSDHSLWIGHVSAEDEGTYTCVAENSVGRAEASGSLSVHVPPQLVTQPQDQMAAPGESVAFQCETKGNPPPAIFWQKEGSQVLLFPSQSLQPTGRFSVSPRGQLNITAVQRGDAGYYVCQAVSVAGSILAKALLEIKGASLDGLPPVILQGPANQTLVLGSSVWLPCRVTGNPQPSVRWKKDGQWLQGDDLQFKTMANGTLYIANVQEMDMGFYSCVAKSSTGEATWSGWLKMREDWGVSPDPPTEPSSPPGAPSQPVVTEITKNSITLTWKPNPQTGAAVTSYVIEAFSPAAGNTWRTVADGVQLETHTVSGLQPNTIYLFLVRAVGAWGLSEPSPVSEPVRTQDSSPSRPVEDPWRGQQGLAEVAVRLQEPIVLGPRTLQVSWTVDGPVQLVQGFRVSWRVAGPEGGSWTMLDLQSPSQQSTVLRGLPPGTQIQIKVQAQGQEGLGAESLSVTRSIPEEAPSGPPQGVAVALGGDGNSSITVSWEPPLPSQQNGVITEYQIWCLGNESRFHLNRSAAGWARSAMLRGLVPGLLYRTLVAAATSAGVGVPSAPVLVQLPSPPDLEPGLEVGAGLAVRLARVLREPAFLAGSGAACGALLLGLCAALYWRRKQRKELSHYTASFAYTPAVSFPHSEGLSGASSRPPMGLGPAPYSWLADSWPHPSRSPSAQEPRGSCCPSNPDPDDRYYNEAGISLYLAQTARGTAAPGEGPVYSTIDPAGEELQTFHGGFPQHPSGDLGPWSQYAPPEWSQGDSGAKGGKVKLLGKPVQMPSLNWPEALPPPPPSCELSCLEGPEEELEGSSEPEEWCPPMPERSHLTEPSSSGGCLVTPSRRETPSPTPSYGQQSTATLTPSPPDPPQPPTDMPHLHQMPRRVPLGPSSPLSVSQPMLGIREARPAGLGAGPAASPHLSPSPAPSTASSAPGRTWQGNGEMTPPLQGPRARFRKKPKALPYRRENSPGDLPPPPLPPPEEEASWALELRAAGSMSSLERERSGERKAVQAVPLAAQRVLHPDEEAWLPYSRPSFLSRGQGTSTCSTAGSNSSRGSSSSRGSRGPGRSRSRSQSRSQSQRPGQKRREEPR
Experimental: Robo3 expression was readily detectable in Ewing sarcoma tumors and cell lines, but undetectable in mesenchymal stem cells (FIG. 2A). The role of Robo3 as the NELL2 receptor in Ewing sarcoma was tested using ligand-binding assays (FIG. 2B). C-terminally FLAG-tagged NELL2 was produced from transfected 293T/HEK293T cells and was incubated with A-673 cells that were transfected with Robo3 siRNA pool or control siRNA pool. After washing the cells to remove unbound NELL2-FLAG, a whole cell lysate was prepared and analyzed by immunoblotting to assess the binding of NELL2-FLAG to A-673 cells. […] The specificity of the NELL2-Robo3 interaction was further confirmed by ligand-binding assays using alkaline phosphatase-fused NELL2 (NELL2-AP) (FIG. 2C). NELL2-AP bound to COS cells expressing Robo3, but not Robo1 or vector (FIG. 2C).

[7] = test system: A673 Ewing sarcoma cells; assay: Growth inhibition screen of anti-NELL2 hybridoma clones / mAbs on Ewing sarcoma cell proliferation; type: cell-based, human; settings: mAbs used at 1 μg/ml, FIG. 6
Experimental: as §1, with “Sphere formation assays were done (Dasgupta, A., et al. (2017) Oncotarget 8, 77292-77308) using ultra-low attachment 6-well plates (Corning: seeding density 1×10^4 cells/well) and DMEM/F-12 medium supplemented with B27, human recombinant epidermal growth factor (20 ng/ml), and basic fibroblast growth factor (20 ng/ml). For xenograft tumorigenicity assays, cells were subcutaneously injected into the flanks of SCID mice (2×10^6 cells/injection, five mice/group).” left out, “While it is not possible to predict the effect size, the sample size of five mice per group was chosen based on experience with xenograft experiments. Mice were randomly allocated to treatment groups. Blinding of the researcher measuring tumor size was employed.” left out

[8] = target: T2, NELL2 EGF-like repeats (residue 397-637) (Homo sapiens (Human), UniProt Q99435 397-637); assay: immunogen ELISA of hybridoma clones
T2 construct: also called EGF-like repeat domain of NELL2; immunogen
T2 sequence (Q99435 397-637 limits assumed): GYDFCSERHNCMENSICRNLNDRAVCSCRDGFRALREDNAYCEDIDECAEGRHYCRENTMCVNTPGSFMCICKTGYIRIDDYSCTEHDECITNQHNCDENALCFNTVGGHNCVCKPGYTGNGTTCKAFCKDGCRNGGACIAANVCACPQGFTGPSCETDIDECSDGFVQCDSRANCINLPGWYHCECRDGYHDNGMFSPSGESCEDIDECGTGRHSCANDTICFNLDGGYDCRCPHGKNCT

## CC(C)C[C@@H](C=O)NC(=O)[C@H](CC(C)C)NC(=O)[C@H](CC(C)C)NC(=O)OCc1ccccc1 [MG-132, reference compound] (Cbz-Leu-Leu-Leu-aldehyde)
[1]; CN04 treatment plus MG-132
  Protein levels of BRG1, BAF250A, BAF155, and BAF47 reduced by CN04, effect of proteasome inhibitor: restored

## N.N.[Cl][Pt][Cl] [cisplatin]
[2]
  Resistance of CD133low versus CD133high population to the drug: more resistant
  CD133low population after prolonged treatment: enriched the CD133^low population

## COc1cccc2c1C(=O)c1c(O)c3c(c(O)c1C2=O)C[C@@](O)(C(=O)CO)C[C@@H]3O[C@H]1C[C@H](N)[C@H](O)[C@H](C)O1 [doxorubicin]
[2]
  Resistance of CD133low versus CD133high population to the drug: more resistant
  CD133low population after prolonged treatment: enriched the CD133^low population

## ML141 [reference compound]
[3]
  Inhibition of Rac, Ras, or Rab: does not inhibit
[1]; CD133^low population treated with ML141
  BRG1, BAF155, and BAF47 protein levels in CD133low population: increased BRG1, BAF155, and BAF47 protein levels
[1]; Ewing sarcoma cells, NELL2 silencing
  Reduction of BRG1, BAF250A, BAF155, and BAF47 by NELL2 silencing, effect of cdc42 inhibitor: abolished this response
[4]
  Proliferation inhibition by NELL2 silencing or Robo3 silencing, effect of cdc42 inhibitor: abrogates the proliferation inhibition; also recorded: abolished
[5]
  Cell proliferation of CD133low population: increased cell proliferation

## NELL2-FLAG: C-terminally FLAG-tagged NELL2 produced from transfected 293T/HEK293T cells
[6]
  Binding to control siRNA transfected A-673 cells: bound
[6]; Robo3 siRNA pool
  Binding to Robo3-silenced A-673 cells: abolished

B1: anti-NELL2 mouse monoclonal antibody clone #15 (antibody, V domains shown)
VH: EVKLVESGGGLVQPGGSLKLSCATSGFTFSDYYLYWVRQTPEKRLEWVAYISNGGDITYYPDTVKGRFAISRDNAKNTLYLQMSRLKSEDTAMYYCARGRVRSYYGNPDAMDFWGQGTSVTVSS
VL: DVVMTQTPLSLPVSLGDQASISCRSSQSLVHSNGNTYLHWYLQKPGQSPKLLIYKVSKRFSGVPDRFSGSGSGTDFTLKITRVEAEDLGVYFCSQSIYVPHTFGGGTKLEIK
notes: Mouse hybridoma mAb; also called NELL2 mAb
[7]
  Ewing sarcoma cell proliferation: strongly inhibited
[8]
  binding result: binds

B2: anti-NELL2 mouse monoclonal antibody clone #17 (antibody, V domains shown)
VH: DVQLVESGGGLVQPGGSRKLSCAASGFTFSSFGMHWVRQAPEKGLEWVAYVSGGSSTIYYADTVKGRFTISRDNPKNTLFLQMTSLRSEDTAMYYCARSFSLLRLPVYFDFWGQGTTLTVSS
VL: DIQMTQSPSSLSASLGERVSLTCRASQEISDYLTWLQQKPDGTIKRLIYAASTLDSGVPKRFSGSRSGSDYSLTISSLESEDFADYYCLQYASFPLTFGAGTKLELK
notes: as for B1
[7]
  Ewing sarcoma cell proliferation: strongly inhibited
[8]
  binding result: binds
